The results in this text go back to ChEMBL document CHEMBL1212815, “Quinolines and structurally related heterocycles as antimalarials” (Eur J Med Chem, 2010).

In data set [1] the test system is Plasmodium falciparum. Description: Antimalarial activity against chloroquine-resistant Plasmodium falciparum. It is filed as functional, organism-based.
The subject of data set [2] is Plasmodium falciparum. The data set can be described thus: Antimalarial activity against chloroquine-resistant Plasmodium falciparum W2. It is filed as functional, organism-based.
For data set [3], the system named is Plasmodium falciparum. Description: Antimalarial activity against Plasmodium falciparum. It is filed as functional, organism-based.
For data set [4], the system named is Plasmodium falciparum. Description: Antimalarial activity against chloroquine-sensitive Plasmodium falciparum. It is filed as functional, organism-based.
The subject of the next data set is Plasmodium vinckei. Description: Antiplasmodial activity against Plasmodium vinckei infected in mice (Mus musculus) assessed as reduction in parasitemia measured per day for 4 days. In kind it is functional. The settings on record: 96 h.
Data set [5] relates to Plasmodium falciparum. The data set can be described thus: Antimalarial activity against chloroquine-resistant Plasmodium falciparum FcB1. In kind it is functional, organism-based. Particulars: FcB1/Columbia.
In data set [6] the test system is Plasmodium berghei. The data set can be described thus: Antiplasmodial activity against Plasmodium berghei infected in perorally dosed mice (Mus musculus). It is filed as functional, organism-based.
A short description of data set [7]: Toxicity in mouse assessed as maximum tolerated dose. It is filed as organism-based. Particulars: in vivo, read-out: Activity.
In another data set the test system is Plasmodium chabaudi. Description: Antiplasmodial activity against Plasmodium chabaudi infected in mice (Mus musculus) assessed as reduction in parasitaemia measured at 50 mg/kg, perorally daily for 4 days. It is filed as functional, organism-based. Set-up: dose 50 mg/kg.
The subject of data set [8] is Plasmodium berghei. Description: Antiplasmodial activity against Plasmodium berghei infected in mice (Mus musculus) assessed as suppression of parasitaemia at 100 mg/kg, po. It is filed as functional.
Data set [9] in a line: Inhibition of Plasmodium falciparum protein farnesyltransferase.
In data set [10] the test system is Plasmodium falciparum. Description: Antimalarial activity against chloroquine-resistant Plasmodium falciparum 3D7. It is filed as functional, organism-based. Particulars: read-out: ED50 (the source's name).
Data set [11] can be described thus: Inhibition of Plasmodium falciparum DHFR.
Data set [12] has as its system Plasmodium falciparum. Description: Antimalarial activity against Plasmodium falciparum FAC8. It is filed as functional, organism-based.
The next data set addresses Plasmepsin II (Plasmodium falciparum, UniProt P46925). Description: Inhibition of Plasmodium falciparum plasmepsin-2.
Data set [13] has as its system Plasmodium falciparum. The data set can be described thus: Antimalarial activity against chloroquine-resistant Plasmodium falciparum K1. It is filed as functional, organism-based.
A short description of data set [14]: Inhibition of Plasmodium falciparum falcipain-2.
For data set [15], the system named is Plasmodium falciparum. The data set can be described thus: Antimalarial activity against chloroquine-resistant Plasmodium falciparum HB3. It is filed as functional, organism-based.
Data set [16] deals with Plasmodium falciparum. The data set can be described thus: Antimalarial activity against chloroquine-resistant Plasmodium falciparum Dd2. In kind it is functional, organism-based.
For data set [17], the system named is Plasmodium falciparum. The data set can be described thus: Selectivity index, ratio of IC50 for Plasmodium falciparum D6 to IC50 for Plasmodium falciparum W2. In kind it is functional.
Data set [18] can be described thus: Dissociation constant, pKa of the compound. It is filed as physicochemical.
In data set [19] the test system is Plasmodium falciparum. Description: Antimalarial activity against chloroquine-resistant Plasmodium falciparum D10. In kind it is functional, organism-based.

In brackets after ≈: the same amount, converted by molar mass. Activity calls are given as the source filed them. No cut-off for these calls is given here.

Sequence of Plasmepsin II (P46925 whole entry): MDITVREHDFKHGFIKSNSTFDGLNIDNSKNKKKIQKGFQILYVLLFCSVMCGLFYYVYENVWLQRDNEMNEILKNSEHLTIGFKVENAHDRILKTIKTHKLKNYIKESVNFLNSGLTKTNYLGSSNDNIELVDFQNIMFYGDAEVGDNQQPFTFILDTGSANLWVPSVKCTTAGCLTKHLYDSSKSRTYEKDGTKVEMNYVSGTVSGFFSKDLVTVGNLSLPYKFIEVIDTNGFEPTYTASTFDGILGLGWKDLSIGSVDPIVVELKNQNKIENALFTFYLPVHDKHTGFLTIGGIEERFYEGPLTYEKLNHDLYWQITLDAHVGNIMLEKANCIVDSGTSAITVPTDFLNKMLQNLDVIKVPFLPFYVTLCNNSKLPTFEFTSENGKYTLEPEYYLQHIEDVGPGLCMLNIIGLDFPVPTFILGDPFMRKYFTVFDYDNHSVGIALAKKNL

Usually IC50 stands for the concentration that inhibits the measured activity by half. On to `Clc1ccc2c(N[C@H]3CCN4CCCC[C@@H]4C3)ccnc2c1`, for which the results for the IC50 in the data set with Plasmodium falciparum [1] and in the data set on Plasmodium falciparum [2] were 21 nM and 23.3 nM, respectively.

The term MIC denotes the lowest concentration that inhibits growth of the organism. `CN(CC(O)CNCc1ccc(Cl)c(Cl)c1)S(=O)(=O)c1cccc2cnccc12` (stereo not given) returned a minimum inhibitory concentration (MIC) in the data set with Plasmodium falciparum [3] (Plasmodium falciparum) of 2 µg/mL (≈ 4.4 µM).

Take `Clc1ccc2c(N3CCNCC3)ccnc2c1`: the IC50 in the data set with Plasmodium falciparum [1] and in the data set on Plasmodium falciparum [4] was 1020 nM in each case.

As usually defined, the ED50 is the dose at which the effect has come halfway, by size or by number of responders. Consider `CC(C)C1=C[C@H]2OC3(CCC(NCCNc4ccnc5cc(Cl)ccc45)CC3)OO[C@@]2(C)CC1.O=C(O)CC(O)(CC(=O)O)C(=O)O` (stereo not given in full), for which the ED50 in the data set on Plasmodium vinckei turned out to be 5 mg/kg. This compound also had a half-inhibitory concentration (IC50) with Plasmodium falciparum [5] of 15 nM.

`Clc1ccc2c(NCC[C@H]3CCN4CCCC[C@@H]4C3)ccnc2c1`: the IC50 in the data set on Plasmodium falciparum [1] was 21 nM.

In the data set with Plasmodium falciparum [1], `O=C1c2ccccc2SCN1CCNc1ccnc2cc(Cl)ccc12` yielded an IC50 of 13 nM.

On to `Clc1ccc2c(NCCNCC3CCC4(CC3)OOC3(CCCCC3)OO4)ccnc2c1`, for which the Activity with Plasmodium berghei [6] is 80 mg/kg. In addition, the MTD in [7] was above 960 mg/kg.

Regarding `CCCCCOc1c(OC)cc(NC(C)CCCN)c2nccc(CC)c12` (stereo not given), the half-inhibitory concentration (IC50) with Plasmodium falciparum [1] stood at 0.0097 µg/mL; in the data set with Plasmodium falciparum [4] it was 0.0094 µg/mL.

The compound `CCOC(=O)c1c(C)nc2ccc(Cl)cc2c1-c1ccccc1` gave an IC50 in the data set with Plasmodium falciparum [3] (Plasmodium falciparum) of 4.47 µg/mL.

As for `COc1cc2cc(/C=C3\CCc4c(OC)cccc4C3=O)c(Cl)nc2cc1OC`, the “inhibition (INH)” value in the data set on Plasmodium falciparum [3] came to 50%.

The compound `O=C(CN(CCCNc1ccnc2cc(Cl)ccc12)C(=O)c1ccncc1)NC1CCCCC1` displayed an IC50 in the data set on Plasmodium falciparum [1] of 73 nM.

Take `Clc1ccc2c(NCCC[C@H]3CCN4CCCC[C@@H]4C3)ccnc2c1`: in the data set with Plasmodium falciparum [1], half-maximal inhibition (IC50) required 21 nM.

For `O=C(NCCNc1ccnc2cc(Cl)ccc12)C1CCC2(CC1)OOC1(CCCCC1)OO2`, the Activity in the data set with Plasmodium berghei [6] turned out to be 80 mg/kg. Also, in data set [7], the MTD was above 960 mg/kg.

For the compound `Clc1cccc(C(Nc2ccnc3cc(Cl)ccc23)c2ccc(CN3CCCC3)cc2)c1` (stereo not given), the outcome with Plasmodium chabaudi was Active.

Consider `CC(C)(C)NCc1cc(Nc2ccnc3cc(Cl)ccc23)ccc1F`, for which, in the data set with Plasmodium berghei [6] (Plasmodium berghei), the 50% effective dose (ED50) amounted to 5.3 mg/kg.

As to `COc1cc(NC(C)CCCN)c2nc(C(C)(C)C)ccc2c1` (stereo not given), the Activity in the data set with Plasmodium berghei [8] was determined as 100%.

In turn, `Clc1ccc2c(NC[C@H]3CCN4CCCC[C@@H]4C3)ccnc2c1` gave a half-maximal inhibitory concentration (IC50) in the data set on Plasmodium falciparum [1] of 21 nM.

`Cn1cnc(S(=O)(=O)N(Cc2ccccc2)C2Cc3cc(C#N)ccc3N(Cc3cncn3C)C2)c1` (stereo not given) displayed an IC50 in data set [9] of 0.6 nM. Also, in the data set with Plasmodium falciparum [10], the EC50 amounted to 5 nM.

`Cc1cc(NC(=O)CN2CCN(C)CC2)c2cc(NC(=O)Nc3cc(Cl)cc(Cl)c3)ccc2n1` gave an IC50 in data set [11] of 0.0004 µg/mL (≈ 0.000798 µM).

The compound `COc1cc2cc(/C=C/C(=O)c3ccc(Cl)cc3Cl)c(Cl)nc2cc1OC` yielded a half-maximal inhibitory concentration (IC50) in the data set with Plasmodium falciparum [3] (Plasmodium falciparum) of 19000 nM.

Compound `OC1(C(F)(F)F)CC(c2ccc(Br)cc2)=NN1c1ccnc2cc(Cl)ccc12` (stereo not given) showed an IC50 with Plasmodium berghei [6] (Plasmodium berghei) of 1.39 µg/mL.

The compound `Cc1cc(NC(=O)c2ccco2)c2cc(NC(=O)Nc3cccc(C#N)c3)ccc2n1` displayed a half-inhibitory concentration (IC50) in data set [11] of 0.0004 µg/mL (≈ 0.000972 µM).

In the data set with Plasmodium falciparum [1], `Clc1ccc2c(N3CCN(Cc4ccccc4Br)CC3)ccnc2c1` returned a 50% inhibitory concentration (IC50) of 11400 nM.

Regarding `CCN(CC)CCCC(C)Nc1ccnc2c(NC(=O)CCCCC(=O)Nc3cccc4c(NC(C)CCCN(CC)CC)ccnc34)cccc12` (stereo not given), the concentration for half-maximal inhibition (IC50) in the data set with Plasmodium falciparum [12] was 120 nM.

On to `OC1(C(F)(F)F)CC(c2ccc(Cl)cc2)=NN1c1ccnc2cc(Cl)ccc12` (stereo not given), for which inhibition in the data set with Plasmodium berghei [6] (Plasmodium berghei) was half-maximal at 1.39 µg/mL (IC50).

Compound `CCCCNC(=O)C[C@H](O)[C@H](CC(C)C)NC(=O)[C@@H](NC(=O)c1ccc(Oc2ccc(C(=O)N[C@@H](CC(C)C)C(=O)N[C@@H](CCCCN)C(=O)NCCCC(C)Nc3cc(OC)cc4cccnc34)cc2)cc1)[C@@H](C)CC` (stereo not given in full) displayed a concentration for half-maximal inhibition (IC50) against Plasmepsin II of 0.59 nM.

For `O=C1CCSC(c2ccc(Cl)cc2)N1CCCNc1ccnc2cc(Cl)ccc12` (stereo not given), in the data set with Plasmodium falciparum [1], inhibition was half-maximal at 13 nM (IC50).

The compound `OC1(C(F)(F)F)CC(c2ccccc2)=NN1c1ccnc2cc(Cl)ccc12` (stereo not given) registered an IC50 in the data set with Plasmodium berghei [6] (Plasmodium berghei) of 1.06 µg/mL.

Take `CCN(CC)Cc1ccc(Nc2ccnc3cc(Cl)ccc23)cc1O` [ISOQUINE]: in the data set on Plasmodium falciparum [13], half-maximal inhibition (IC50) was put at 6.01 nM.

Take `CC1(C(=O)NC2CCCCC2)CCCC(=O)N1CCCCCCNc1ccnc2cc(Cl)ccc12` (stereo not given): in [14], the IC50 was 17700 nM.

In the case of `CCN(CC)Cc1cc(N)cc(Nc2ccnc3cc(Cl)ccc23)c1`, the IC50 with Plasmodium berghei [6] (Plasmodium berghei) amounted to 18.1 nM.

`Clc1ccc2c(N3CCN(CCCN4CCN(c5ccnc6cc(Cl)ccc56)CC4)CC3)ccnc2c1` [PIPERAQUINE] registered a concentration for half-maximal inhibition (IC50) with Plasmodium falciparum [4] of 36 nM.

For the compound `O=C1CSC(c2c(Cl)cccc2Cl)N1CCNc1ccnc2cc(Cl)ccc12` (stereo not given), half-maximal inhibition in the data set on Plasmodium falciparum [1] (IC50) was put at 13 nM.

As for `CCN(CCNc1ccnc2cc(Cl)ccc12)CCNS(=O)(=O)c1ccc2c(N(C)C)cccc2c1`, the figures for the IC50 in the data set with Plasmodium falciparum [15] and in the data set on Plasmodium falciparum [16] were 17.5 nM and 22.7 nM, respectively.

On to `CN1CC2CCC1C(CNc1ccnc3cc(Cl)ccc13)C2` (stereo not given), for which, in the data set with Plasmodium falciparum [17], the “Ratio IC50” value is recorded as above 1200.

The compound `CCOC(=O)c1c(CN2CCCCC2)nc2ccc(Cl)cc2c1-c1ccccc1` gave an IC50 in the data set on Plasmodium falciparum [3] (Plasmodium falciparum) of 2.56 µg/mL.

Take `CCC(=O)CCCCC[C@@H]1NC(=O)[C@H]2CCCCN2C(=O)[C@H]([C@H](C)CC)NC(=O)[C@H](c2c[nH]c3ccccc3c2=O)NC1=O`: the 50% inhibitory concentration (IC50) in the data set on Plasmodium falciparum [1] and with Plasmodium falciparum [4] was 0.04 µg/mL each time.

By IC90 is commonly meant the point of the concentration-response curve where the effect stands at 90%. A lower IC90 goes with an effect from little substance. In the case of `N=C(N)c1ccc(OCCCCCOc2ccc(C(=N)N)cc2)cc1` [PENTAMIDINE], in the data set on Plasmodium falciparum [3] (Plasmodium falciparum), the midpoint of inhibition, the IC50, lay at 2.9 µg/mL and the IC90 worked out at 6.5 µg/mL (≈ 19.1 µM).

Broadly, the pKa is the negative logarithm of the acid dissociation constant. A lower pKa goes with a group that gives up its proton readily. Turning to `C1CC2CCC1CN2` [ISOQUINUCLIDINE], the pKa in [18] was 11.

In the data set on Plasmodium falciparum [19], `CN(C)CCCN(CCCN(C)C)CCCN1c2ccccc2Sc2ccc(Cl)cc21` gave an IC50 of 120 nM.
